Laboratory results: patent US20220265591A1, “USE OF AN OSMOLYTE IN MANUFACTURE OF A MEDICAMENT FOR TREATMENT OF OCULAR DISORDERS” (SINGAPORE HEALTH SERVICES PTELTD, priority 2019, published 2022)

Assays:
[1] = target: T1, TGFBIp611-633 N622K peptide (Homo sapiens, UniProt Q15582, N622K); experiment: ThT fluorescence assay, inhibition of amyloid fibrillation; format: biochemical; conditions: TGFBIp-N622K, final time point
T1 construct: The TGFBIp^611-633 N622K peptides were treated with 200 mM and 320 mM of taurine; purchased Synpeptide Co Ltd, Shanghai, China; host or cells: synthetic peptide
T1 sequence (Q15582 611-633 N622K limits assumed): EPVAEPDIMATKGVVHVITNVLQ
Protocol: The TGFBIp^611-633 G623R peptides were treated with 200 mM and 320 mM of taurine for up to 72 hours, respectively, the results of which are illustrated in FIG. 11. The TGFBIp^611-633 N622K peptides were treated with 200 mM and 320 mM of taurine for up to 240 hours, respectively, the results of which are illustrated in FIG. 12. The peptides incubated with PBS were used as controls.
The peptide samples were collected at 24 h, 48 h and 72 h after treatment for TGFBIp^611-633 G623R peptides and at 120 h, 144 h and […] after treatment for the TGFBIp^611-633 N622K peptides. The samples were then treated with 30 μM ThT in PBS buffer at pH 5.5 in a 96-well microplate for ThT fluorescence assay. The microplate was excited at 445 nm and the resulting emission fluorescence at 485 nm was measured using a microplate reader.

[2] = target: T1, TGFBIp611-633 N622K peptide; experiment: Circular Dichroism assay, inhibition of amyloid fibrillation; format: biochemical; conditions: TGFBIp-N622K, final time point, read-out: % Inhibition at final time point, CD
Protocol: Circular Dichroism (CD) spectroscopy was performed to study the changes in the secondary structure of the peptides. The TGFBIp^611-633 G623R peptides were treated with 200 mM and 320 mM of taurine in PBS buffer at pH 7.0 for 24 h, 48 h and 72 h, respectively. While the TGFBIp^611-633 N622K peptides were treated with 200 mM and 320 mM of taurine in PBS buffer at pH 7.0 for 72 h, 96 h, 120 h, 144 h, 192 h, 216 h, and 240 h, respectively. The treatment solutions were studied by far UV-CD assay.

[3] = target: T2, preformed amyloid fibrils from TGFBIp611-633 N622K peptide (Homo sapiens, UniProt Q15582, N622K); experiment: Circular Dichroism assay, disaggregation of preformed amyloid fibrils; format: biochemical; conditions: TGFBIp-N622K preformed fibrils, listed as taurine
T2 construct: purchased Synpeptide Co Ltd, Shanghai, China; host or cells: synthetic peptide
Protocol: The model peptides TGFBIp^611-633 G623R and TGFBIp^611-633 N622K were incubated in PBS for 24 hours for the TGFBIp^611-633 G623R peptide and 96 hours for the TGFBIp^611-633 N622K peptide, allowed to form uniform amyloid fibrils. The formation of amyloid fibrils was confirmed by (SEM) and CD spectroscopy.
Circular Dichroism (CD) spectroscopy was performed to study the disaggregation of the preformed amyloid fibrils. The preformed amyloid fibrils were treated with taurine at a concentration of 200 mM and 320 mM in PBS buffer at pH 7.0 for 24 h, 48 h and 72 respectively. The treatment solutions were studied by far UV-CD assay.

[4] = target: T3, TGFBIp611-633 G623R peptide (Homo sapiens, UniProt Q15582, G623R); experiment: ThT fluorescence microscopy, inhibition of amyloid fibrillation
T3 construct: The 23-amino acid long peptide (TGFBIp 611-633 c.623 G>R) from the 4th FAS1 domain; purchased Synpeptide Co Ltd, Shanghai, China; host or cells: synthetic peptide
T3 sequence (Q15582 611-633 G623R limits assumed): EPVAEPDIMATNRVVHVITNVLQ
Protocol: The inhibitory effects of the four osmolytes on amyloid fibrillation of the TGFBIp^611-633 G623R peptide were investigated further by fluorescence microscopy after ThT staining. The peptide samples collected at various time points above were incubated ThT at a ratio of 1:1 ratio in the dark for 30 minutes to obtain solutions for fluorescence microscopy. 25 μl of the solutions were taken on to slides with coverslips and visualized under a fluorescent microscope (Axiolmager Z1, Carl Zeiss, Oberkochen, Germany).
The inhibition effect of taurine on the amyloid fibrillation was investigated further by fluorescence microscopy after ThT staining. The samples collected at the various time points above were incubated ThT at a ratio of 1:1 ratio in the dark for 30 minutes to obtain solutions for fluorescence microscopy. 25 μl of the solutions were taken on to slides with coverslips and visualized under a fluorescent microscope.

NCCS(=O)(=O)O [Taurine, taurine]
inhibition at 200000 µM ([1]; 200 mM): 37% | inhibition at 320000 µM ([1]; 320 mM): 76% | inhibition at 200000 µM ([2]; 200 mM): 39% | inhibition at 320000 µM ([2]; 320 mM): 66% | % Dissolution at final time point, CD ([3]; 200 mM): 61% | % Dissolution at final time point, CD ([3]; 320 mM): 66% | fluorescent intensity under microscope ([4]; 200 mM and 320 mM): reduction in fluorescent intensity | ThT fluorescence images, fluorescent spots ([4]; 200 mM, 24 h to 72 h, versus PBS control): relatively smaller fluorescent spots even after 24 h
